Results reported in the NIST ThermoML archive (doi:10.1021/je060486k).

Test: cn = amount concentration of the nth substance listed, in mol/dm3
Conditions: 298.15 K; for surface tension liquid-gas: Wilhelmy plate method; for kinematic viscosity / mass density / speed of sound: 101 kPa, Liquid; for kinematic viscosity: Capillary tube (Ostwald / Ubbelohde) method

CCCCCCCC[N+](C)(C)C.[Br-] [octyl trimethyl ammonium bromide] + O
Conditions	kinematic viscosity [m2/s]	mass density [kg/m3]	speed of sound [m/s]	surface tension liquid-gas [mN/m]
c1 = 0.02	8.99e-07	997.62	1500.1	69.4
c1 = 0.04	9.033e-07	998.2	1503.1	63.1
c1 = 0.06	9.083e-07	998.73	1506.3	59.5
c1 = 0.08	9.14e-07	999.23	1510	54.6
c1 = 0.1	9.2e-07	999.68	1513.1	51.1
c1 = 0.12	9.276e-07	1000.25	1516.4	48.9
c1 = 0.14	9.355e-07	1000.79	1520.3	46.5
c1 = 0.16	9.441e-07	1001.62	1522.7	44
c1 = 0.18	9.534e-07	1001.9	1525.8	41.7
c1 = 0.2	9.636e-07	1002.54	1529.6	39.8
c1 = 0.3	1.025e-06	1005	1540	36.4
c1 = 0.4	1.103e-06	1008.09	1546.5	35.8
c1 = 0.5	1.2e-06	1010.5	1549.2	35.5
c1 = 0.6	1.315e-06	1013.19	1552.2	35.4
c1 = 0.8	1.598e-06	1018.07	1557.4	35.2
c1 = 1	1.953e-06	1022.98	1562.7	35.1

O [water] + CCCCCCCCCC[N+](C)(C)C.[Br-]
c2 = 0
Conditions	kinematic viscosity [m2/s]	surface tension liquid-gas [mN/m]
–	8.956e-07	72.5

O [water] + CCCCCCCC[N+](C)(C)C.[Br-]
c2 = 0
Conditions	kinematic viscosity [m2/s]	surface tension liquid-gas [mN/m]
–	8.957e-07	72.5

O [water] + CCCCCC[N+](C)(C)C.[Br-]
c2 = 0
Conditions	kinematic viscosity [m2/s]	surface tension liquid-gas [mN/m]
–	8.957e-07	72.5
